{"source": "ChEMBL document CHEMBL3112559", "about": "“Photodynamic inactivation of bioluminescent Escherichia coli by neutral and cationic pyrrolidine-fused chlorins and isobacteriochlorins” (Bioorg Med Chem Lett, 2014)", "key": {"[1]": {"system": "Escherichia coli", "experiment": "Antibacterial activity against Escherichia coli transfected with Vibrio fischeri lux operon assessed as log reduction of bioluminescence at 20 uM incubated for 10 mins in dark followed by 36 J cm'-2 white light irradiation for 150 mins by luminometry relative to control", "type": "functional"}, "[2]": {"system": "Escherichia coli", "experiment": "Dark toxicity in recombinant Escherichia coli transfected with Vibrio fischeri lux operon at 20 uM after 10 mins by luminometry", "type": "organism-based", "conditions": "in vivo"}, "[3]": {"system": "Escherichia coli", "experiment": "Antibacterial activity against Escherichia coli transfected with Vibrio fischeri lux operon assessed as log reduction of bioluminescence at 5 uM incubated for 10 mins in dark followed by 43.2 J cm'-2 white light irradiation for 180 mins by luminometry relative to control", "type": "functional"}, "[4]": {"system": "Escherichia coli", "experiment": "Dark toxicity in recombinant Escherichia coli transfected with Vibrio fischeri lux operon at 5 uM after 10 mins by luminometry", "type": "organism-based", "conditions": "in vivo"}, "[5]": {"system": "Escherichia coli", "experiment": "Antibacterial activity against Escherichia coli transfected with Vibrio fischeri lux operon assessed as log reduction of bioluminescence at 20 uM incubated for 10 mins in dark followed by 43.2 J cm'-2 white light irradiation for 180 mins by luminometry relative to control", "type": "functional"}, "[6]": {"system": "Escherichia coli", "experiment": "Antibacterial activity against Escherichia coli assessed as log reduction of bioluminescence at 1 uM incubated for 30 mins followed by 10 J cm'-2 laser light irradiation relative to control", "type": "functional"}, "[7]": {"system": "Staphylococcus aureus", "experiment": "Antibacterial activity against Staphylococcus aureus assessed as log reduction of bioluminescence at 1 uM incubated for 30 mins followed by 10 J cm'-2 laser light irradiation relative to control", "type": "functional"}}, "note": "Activity calls are given as the source filed them. No cut-off for these calls is given here.", "data": [{"smiles": "C[N+]1(C)CC2c3nc(c(-c4c(F)c(F)c(F)c(F)c4F)c4ccc([nH]4)c(-c4c(F)c(F)c(F)c(F)c4F)c4nc(c(-c5c(F)c(F)c(F)c(F)c5F)c5ccc([nH]5)c3-c3c(F)c(F)c(F)c(F)c3F)C=C4)C2C1.[I-]", "note": "(configuration not stated)", "values": [{"measurement": "Activity", "setting": "[1]", "value": "Active"}, {"measurement": "Activity", "setting": "[2]", "value": "Non-toxic"}, {"measurement": "FC", "setting": "[3]", "value": 0.77}]}, {"smiles": "C[N+]1(C)CC2c3nc(c(-c4c(F)c(F)c(F)c(F)c4F)c4ccc([nH]4)c(-c4c(F)c(F)c(F)c(F)c4F)c4nc(c(-c5c(F)c(F)c(F)c(F)c5F)c5[nH]c(c3-c3c(F)c(F)c(F)c(F)c3F)C3C[N+](C)(C)CC53)C=C4)C2C1.[I-].[I-]", "note": "(configuration not stated)", "values": [{"measurement": "FC", "setting": "[1]", "value": 6.1}, {"measurement": "Activity", "setting": "[2]", "value": "Non-toxic"}, {"measurement": "FC", "setting": "[3]", "value": ">5"}]}, {"smiles": "CN1CC2c3nc(c(-c4c(F)c(F)c(F)c(F)c4F)c4ccc([nH]4)c(-c4c(F)c(F)c(F)c(F)c4F)c4nc(c(-c5c(F)c(F)c(F)c(F)c5F)c5ccc([nH]5)c3-c3c(F)c(F)c(F)c(F)c3F)C=C4)C2C1", "note": "(configuration not stated)", "values": [{"measurement": "Activity", "setting": "[4]", "value": "Non-toxic"}, {"measurement": "FC", "setting": "[3]", "value": 0.57}]}, {"smiles": "CN1CC2c3nc(c(-c4c(F)c(F)c(F)c(F)c4F)c4ccc([nH]4)c(-c4c(F)c(F)c(F)c(F)c4F)c4nc(c(-c5c(F)c(F)c(F)c(F)c5F)c5[nH]c(c3-c3c(F)c(F)c(F)c(F)c3F)C3CN(C)CC53)C=C4)C2C1", "note": "(configuration not stated)", "values": [{"measurement": "FC", "setting": "[5]", "value": 0.24}, {"measurement": "Activity", "setting": "[2]", "value": "Non-toxic"}]}, {"smiles": "CC1(C)Cc2cc3[nH]c(cc4nc(cc5[nH]c(cc1n2)cc5C(=O)NCCC[N+](C)(CCC[N+](C)(C)C)CCC[N+](C)(C)C)CC4(C)C)cc3C(=O)NCCC[N+](C)(CCC[N+](C)(C)C)CCC[N+](C)(C)C", "values": [{"measurement": "FC", "setting": "[6]", "value": 6}, {"measurement": "FC", "setting": "[7]", "value": 6}]}]}
